In patent US6992169B2, “Carrier based drug delivery system” (Cyclacel Limited, priority 1998, dated 2006):

Experiment: Carcinoma cell line panel, SRB-assay
Method: After incubation for 96 h, cytotoxicity was assessed using a standard SRB-assay.

Compound: CC[C@H](C)[C@H](NC(=O)[C@H](CCCCN)NC(=O)[C@@H](NC(=O)[C@H](CCC(N)=O)NC(=O)[C@H](CCCNC(=N)N)NC(=O)[C@@H](N)CSC1CC(=O)N(CCC(=O)O[C@H]2C[C@H]3OC[C@@]3(OC(C)=O)[C@H]3[C@H](OC(=O)c4ccccc4)[C@]4(O)C[C@H](OC(=O)[C@H](O)[C@@H](NC(=O)c5ccccc5)c5ccccc5)C(C)=C([C@@H](OC(C)=O)C(=O)[C@]23C)C4(C)C)C1=O)[C@@H](C)CC)C(=O)N[C@@H](Cc1c[nH]c2ccccc12)C(=O)N[C@@H](Cc1ccccc1)C(=O)N[C@@H](CCC(N)=O)C(=O)N[C@@H](CC(N)=O)C(=O)N[C@@H](CCCNC(=N)N)C(=O)N[C@@H](CCCNC(=N)N)C(=O)N[C@@H](CCSC)C(=O)N[C@@H](CCCCN)C(=O)N[C@@H](Cc1c[nH]c2ccccc12)C(=O)N[C@@H](CCCCN)C(=O)N[C@@H](CCCCN)C(=O)O (stereo partly shown) [7-Paclitaxel Vector Conjugate]
- IC50 at 96 h: > 25 µM
